From article PMC9502776, “Assessment of the Effects of Chitosan, Chitooligosaccharides and Their Derivatives on Lemna minor” (Molecules, 2022)
Converted amounts (≈) assume the structure as drawn. Where a name gives a salt, the structure may show the parent alone.

How the values were obtained:
Lemna minor = Lemna minor growth inhibition assay (OECD Test No. 221); type: in vivo; conditions: for aquatic toxicity category according to U.S. EPA: based on the calculated EC50 values against Lemna minor
Procedure: Four types of polymers were tested, namely low- (ChiS), medium- (ChiM) and high- (ChiL) molecular-weight chitosan and chitosan with a degree of deacetylation of approximately 50% (Chi50). The chitosan samples were tested in three concentrations (50 mg/L, 500 mg/L and 5000 mg/L) and were obtained by dissolving the polymers in 0.3% acetic acid, followed by dilution with culture medium in a 1:2 ratio.
Four types of chitooligosaccharides were tested: D-glucosamine hydrochloride (G), N-acetyl-D-glucosamine (NAG or A), chitobiose dihydrochloride (2G), and carboxymethyl chitosan (CMChi). Three chitooligosaccharides (G, NAG, 2G) were tested in three concentrations: 5 mg/L, 50 mg/L and 250 mg/L, being dissolved directly into L. minor culture medium. CMChi was tested in four concentrations (50 mg/L, 250 mg/L, 500 mg/L and 5000 mg/L) and the solutions were prepared by dissolving the polymer directly in L. minor culture medium.
Lemna minor, the common duckweed, was used as a test organism for the assessment of growth response of the tested chitosan samples and chitooligosaccharides through a growth inhibition assay. Standard conditions as described in OECD guideline were maintained during both L. minor culture and growth inhibition assay.
The effects of the chitosan samples and the chitooligosaccharides were tested using a number of 10 fronds per test vessel, with an exposure period of 7 days. In the same conditions, two controls were tested: a negative control (C−), represented by culture medium, and a positive control (C+), represented by 0.5% zinc chloride. All samples and controls were tested in triplicate.
The endpoints of the growth inhibition test were represented by number of fronds, which was used for the plotting of dose–response curves and the calculation of half maximal effective concentration (EC50). The tested samples were classified into aquatic ecotoxicity categories according to U.S. EPA [47] based on the calculated EC50 values: very highly toxic (<0.1 mg/L), highly toxic (>0.1–1 mg/L), moderately toxic (>1–10 mg/L), slightly toxic (>10–100 mg/L) and practically non-toxic (>100 mg/L).
PAST software was used for the statistical analysis of data, with Quest Graph™ EC50 Calculator [65] being used for the calculation of EC50 values. The Shapiro–Wilk W test was used for assessing the normality of the data, with the distribution analysis being followed by an ANOVA analysis. The normally distributed data were analyzed with parametric tests, the homogeneity of variance among treatments was determined through Levene’s test, with Tuckey’s post hoc test being used for the analysis of variances. The non-normally distributed data were analyzed with the Kruskal–Wallis test, variances being further analyzed using Dunn’s post hoc test. The Pearson linear r correlation test was used for all correlation analysis. The differences were considered significant for p values < 0.05.

Lemna trisulca = tested on: Lemna trisulca; design: method as in PMID 17074410; conditions: ref [48], cited from earlier work
Lemna gibba = tested on: Lemna gibba; design: method as in PMID 16666961; conditions: D-glucosamine 50 mM, ref [49]; cited from earlier work
[1] = number of fronds, exposure period of 7 days

Cl.N[C@H]1[C@H](O[C@H]2[C@H](O)[C@@H](N)C(O)O[C@@H]2CO)O[C@H](CO)[C@@H](O)[C@@H]1O (some centres unmarked) [2G, chitobiose dihydrochloride]
EC50 against Lemna minor (Lemna minor; [1]): 266.36 µg/mL

CC(=O)N[C@@H]1[C@@H](O)[C@H](O)[C@@H](CO)O[C@@H]1O [A, N-acetyl-D-glucosamine]
aquatic toxicity category according to U.S. EPA (Lemna minor): practically non-toxic (practically non-toxic (>100 mg/L))
EC50 against Lemna minor (Lemna minor; [1]): 678.22 µg/mL (≈ 3.07 mM)

N[C@H]1C(O)O[C@H](CO)[C@@H](O)[C@@H]1O (stereo partly drawn) [D, D-glucosamine]
level of zeaxanthin and antheraxanthin, times higher than the control (Lemna trisulca; Lemna trisulca): approximately 30 times
inhibition of violaxanthin synthesis from zeaxanthin and antheraxanthin (Lemna trisulca; even at a concentration of 0.01%): induced the inhibition
inhibition of the respiration rate (Lemna gibba): 30%

N[C@H]1C(O)O[C@H](CO)[C@@H](O)[C@@H]1O (stereo partly drawn) [G, D-glucosamine hydrochloride]
EC50 (Lemna minor; Lemna minor, 168 h, number of fronds, exposure period of 7 days, read-out: EC50 against Lemna minor): 11.6 µg/mL
aquatic toxicity category according to U.S. EPA (Lemna minor): slightly toxic (slightly toxic (>10–100 mg/L))
